Measured values as given in the supplement of paper PMC10477900.
Counter-ions that a name gives are not always drawn.

How the values were obtained:
HCT116 [1] = test: viability inhibition vs untreated; higher = more cytotoxic; settings: 72 h
HCT116 [2] = settings: 72 h
Procedure: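 HCT116 control and MTA1-KO (CRISPR) HCT116 cells were seeded in 384-well plates (800 cells/well), treated 16 h later with 237 metabolism-related anticancer drugs at five doses (10 uM, 2 uM, 400 nM, 80 nM, 16 nM) for 72 h, two replicates; viability by CCK8. Values are % inhibition of viability relative to untreated cells, plus fitted IC50.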

Row | Compound | viability inhibition (HCT116 [1]; genotype: MTA1-KO, 16 nM) [%] | viability inhibition (HCT116 [1]; genotype: MTA1-KO, 80 nM) [%] | viability inhibition (HCT116 [1]; genotype: MTA1-KO, 400 nM) [%] | viability inhibition (HCT116 [1]; genotype: MTA1-KO, 2000 nM) [%] | viability inhibition (HCT116 [1]; genotype: MTA1-KO, 10000 nM) [%] | viability inhibition (HCT116 [1]; genotype: control, 16 nM) [%] | viability inhibition (HCT116 [1]; genotype: control, 80 nM) [%] | viability inhibition (HCT116 [1]; genotype: control, 400 nM) [%] | viability inhibition (HCT116 [1]; genotype: control, 2000 nM) [%] | viability inhibition (HCT116 [1]; genotype: control, 10000 nM) [%] | IC50 (HCT116 [2]; genotype: MTA1-KO) [µM] | IC50 (HCT116 [2]; genotype: control) [µM]
1 | COC(=O)c1ccc(O)c(NC(=O)COc2ccc(C34CC5CC(CC(C5)C3)C4)cc2)c1 [LW6] | 1.16 | 1.05 | -7.41 | 5.31 | 49.9 | -13.6 | -18.1 | -10.6 | -9.1 | -7.79 | 9.47 | > 10
2 | O=c1oc2cc(O)ccc2s1 [Tioxolone] | -23.8 | -21.4 | -19 | -28.2 | -26.1 | 0.941 | -1.9 | -1.53 | -13.6 | -6.09 | > 10 | > 10
3 | O=c1c2cc(O)c(O)cc2oc2cc(O)c([C@@H]3O[C@H](CO)[C@@H](O)[C@H](O)[C@H]3O)c(O)c12 [Mangiferin] | -12.5 | -17.6 | -11.2 | -10.4 | -14.8 | -7.62 | 8.64 | 4.62 | 6.09 | 1.62 | > 10 | > 10
4 | CC(=O)OCC(=O)[C@@]1(O)CC[C@H]2[C@@H]3CCC4=CC(=O)C=C[C@]4(C)[C@H]3[C@@H](O)C[C@@]21C [Prednisolone-21-acetate] | -12.5 | -14 | -3.35 | -0.355 | -5.46 | -5.13 | -7.24 | -8.51 | -7.3 | -12.1 | > 10 | > 10
5 | O=C(O[C@@H]1Cc2c(O)cc(O)cc2O[C@@H]1c1cc(O)c(O)c(O)c1)c1cc(O)c(O)c(O)c1 [(-)-Epigallocatechin Gallate] | 13 | -1.62 | 5.38 | 12 | 19.4 | -8.68 | -5.93 | -14.9 | -4.61 | -3.45 | > 10 | > 10
6 | Cc1ccc(S(=O)(=O)Cc2nc(-c3ccc(C(=O)NCc4cccnc4)cc3)oc2C)cc1 | 5.08 | -6.5 | -22.3 | -11.9 | 2.23 | 9.95 | 6.71 | 18.9 | 19 | 26.9 | > 10 | > 10
7 | c1cc(-c2cnn3cc(-c4ccc(OCCN5CCCCC5)cc4)cnc23)ccn1 [Dorsomorphin dihydrochloride] | -1.27 | -9.68 | 3.35 | 4.71 | 43.6 | -2.17 | -2.84 | -1.4 | 7.12 | 55.1 | > 10 | 8.54
8 | COc1cccc(-c2ccc(NC(=O)C3=C(C(=O)O)CCC3)c(F)c2)c1 [Vidofludimus] | 16.3 | 14.4 | 15.2 | 18.4 | 72.5 | 14.5 | 16.4 | 19.6 | 28.3 | 60.9 | 7.17 | 8.85
9 | Cc1c(CN2CCN(C(=O)[C@H](C)O)CC2)sc2c(N3CCOCC3)nc(-c3cnc(N)nc3)nc12 [Apitolisib] | -11.5 | 2.04 | 38.8 | 65.3 | 82.6 | 0.365 | 0.791 | 60.6 | 70.1 | 80.4 | 0.471 | 0.268
10 | c1ccc2c(CCNc3ccc(Nc4ccncc4)cc3)c[nH]c2c1 [Serdemetan] | 10.9 | 7.55 | 13.6 | 65.6 | 107 | 10.5 | 10.9 | 5.2 | 5.93 | 85.1 | 1.66 | 2.48
11 | CC(=O)O[C@H]1C[C@H](O[C@H]2[C@@H](O)C[C@H](O[C@H]3[C@@H](O)C[C@H](O[C@H]4CC[C@@]5(C)[C@H](CC[C@@H]6[C@@H]5C[C@@H](O)[C@]5(C)[C@@H](C7=CC(=O)OC7)CC[C@]65O)C4)O[C@@H]3C)O[C@@H]2C)O[C@H](C)[C@H]1O[C@@H]1O[C@H](CO)[C@@H](O)[C@H](O)[C@H]1O [Lanatoside C] | 2.02 | 2.18 | 87.7 | 105 | 107 | -11.4 | 12.6 | 88 | 99.5 | 101 | 0.286 | 0.145
12 | CO[C@H]1C[C@@H]2CC[C@@H](C)[C@@](O)(O2)C(=O)C(=O)N2CCCC[C@H]2C(=O)O[C@H]([C@H](C)C[C@@H]2CC[C@H](n3cnnn3)[C@H](OC)C2)CC(=O)[C@H](C)/C=C(\C)[C@@H](O)[C@@H](OC)C(=O)[C@H](C)C[C@H](C)/C=C/C=C/C=C/1C [Zotarolimus] | 5.1 | -1.86 | 2.56 | 34.7 | 69.3 | -4.9 | -11.3 | -9.38 | -17.6 | 9.36 | 2.07 | > 10
13 | N#CC(C#N)=NNc1ccc(OC(F)(F)F)cc1 [FCCP] | -7.63 | 1.48 | -17.8 | -8.82 | 87.2 | -7.79 | -5.69 | -13.2 | -7.17 | 67 | 8.13 | 9.04
